Experimental data taken from US7348306B2, “Composition for promoting lacrimal secretion” (Fuso Pharmaceutical Industries, Ltd., priority 1999, dated 2008).
Where no end group is shown, it is not given here.

Tested on: rat lacrimal secretion
Assay: Rat lacrimal secretion in vivo, Schirmer test paper, after intravenous administration of PAR-associated peptides
Conditions: male Wistar rat
Experimental: An amount of lacrimal fluid may be measured according to the known method such as a method of Iga et al. using a rat (Iga, Y. et al., Jpn. J. Pharmacol., 78, 373-80, 1998). In particular, a rat is anesthetized with pentobarbital (50 mg/kg, intraabdominal administration), and a paper with 2 mm width for testing the human lacrimal secretion function, the Schirmer test paper (Showa Yakuhin Kako Co., Ltd.) is inserted into a lower eyelid of the rat. After a period of time fixed has passed, the test paper is removed, and a length of the wetted portion of the test paper is measured using a caliper square.
Male Wistar-line rat at 6 weeks of age was used in experiments. Each animal was housed for one week under the environment of room temperature of 23±2° C., a humidity of 50±5% and a 12 hours light/dark cycle (light: 07:00-19:00) and, thereafter, it was subjected to experiments. During the housing and experiment period, the animal was fed a solid chow and water ad lib.
Four animals were used in Examples 3-4, and the results thereof are shown in the mean±S.E.M. The test of significance was performed according to a Tukey's multiple comparison test.
An amount of rat lacrimal fluid was measured according to the method of Iga et al. (Iga, Y. et al., Jpn. J. Pharmacol., 78, 373-80, 1998). That is, the rat was anesthetized with pentobarbital (50 mg/kg, intraabdominal administration), and a paper with 2 mm width for testing human lacrimal secretion function, the Schirmer test paper (Showa Yakuhin Kako Co., Ltd.) was inserted into a lower eyelid of the rat. After the period of time fixed has passed, the test paper was removed, and a length of a wetted portion of the test paper was measured using a caliper square. An amount of lacrimal fluid was measured at 1, 2, 4, 6, 8 and 10 minutes after intravenous administration of a solvent or PAR-associated peptides.
An amount of lacrimal fluid was measured as described in Example 3.

[1] = 5 μmol/kg intravenously, peptide alone, Example 3 (FIG. 1)

Substance	effect on lacrimal secretion (length of wetted portion of Schirmer test paper) [1]	time of peak of lacrimal secretion promotion after intravenous administration [1] [min]	dose-dependency of rat lacrimal secretion promoting action (1 to 5 μmol/kg intravenously, Example 4 (FIG. 2), vs solvent)	lacrimal secretion 8 and 10 minutes after combined treatment with amastatine, as compared with SLp-NH2 alone (SLp-NH2 5 μmol/kg i.v. with amastatine 2.5 μmol/kg i.v. 1 minute before, P<0.01 vs SLp-NH2 (Tukey test))	persistence of lacrimal secretion promoting action in combined treatment with amastatine (SLp-NH2 5 μmol/kg i.v. with amastatine 2.5 μmol/kg i.v. 1 minute before, compared with SLp-NH2 alone)	effect on rat lacrimal secretion (5 μmol/kg intravenously, Example 4 (FIG. 2), vs solvent-administrated group)
Ser-Leu-Ile-Gly-Arg-Leu-NH2 (SLIGRL-NH2) [SLp-NH2]	significant promotion of lacrimal secretion	1	promoted the rat lacrimal secretion in doses of ranging from 1 to 5 μmol/kg in a dose-dependent manner	significant promotion of lacrimal secretion	more persistent than that of SLp-NH2 alone	
Leu-Arg-Gly-Ile-Leu-Ser-NH2 (LRGILS-NH2) [LRp-NH2, designed control peptide, C-terminal amidated, reference compound]						no effect
